According to PubChem BioAssay AID328 (DTP/NCI, 2004):
“And” between values parts separate entries of the source, which are not always exact repeats. Equal values may be shown once. Inconclusive results and toxic doses are left out. Rule for the calls: active = survival T/C of 150% or more; inactive = T/C below 125% in these data.

Tested on: BDF1 mice, P388 leukemia ip, median survival T/C
Test: NCI In Vivo Anticancer Drug Screen. Data for tumor model P388 Leukemia (intraperitoneal) in B6D2F1 (BDF1) mice
Conditions: endpoint: median survival time, higher = longer survival
Protocol: The antitumor activity of compounds was measured in mice bearing transplantable tumors. Survival or tumor size were measured and the results are expressed as the measurement made in the treated group (T) divided by the measurement made in the vehicle treated control group (C). The tumor model used in this assay is P388 Leukemia (intraperitoneal) in B6D2F1 (BDF1) mice

[1] = dose: 100.0 mg/kg/injection, schedule: Q04DX003 (ip), vehicle: saline with Tween-80
[2] = dose: 100.0 mg/kg/injection, schedule: Q01DX001 (ip), vehicle: saline with Tween-80
[3] = dose: 200.0 mg/kg/injection, schedule: Q04DX003 (ip), vehicle: saline with Tween-80
[4] = dose: 400.0 mg/kg/injection, schedule: Q04DX003 (ip), vehicle: saline with Tween-80
[5] = dose: 100.0 mg/kg/injection, schedule: Q01DX001 (ip), vehicle: Klucel (hydroxypropylcellulose) (HPC)
[6] = dose: 200.0 mg/kg/injection, schedule: Q01DX001 (ip), vehicle: Klucel (hydroxypropylcellulose) (HPC)

Measured: T/C

CCC[CH2][Sn]1([CH2]CCC)[O]OC(c2ccccc2)[O]1 (configuration not stated)
inactive: dose: 0.5 mg/kg/injection, schedule: Q01DX009 (ip), vehicle: saline with Tween-80 109 % of control | dose: 1.0 mg/kg/injection, schedule: Q01DX009 (ip), vehicle: saline with Tween-80 123 % of control | dose: 1.25 mg/kg/injection, schedule: Q04DX003 (ip), vehicle: other 109 % of control | dose: 1.32 mg/kg/injection, schedule: Q01DX009 (ip), vehicle: saline with Tween-80 115 % of control and 116 % of control | dose: 2.0 mg/kg/injection, schedule: Q01DX009 (ip), vehicle: saline with Tween-80 110 % of control and 120 % of control | dose: 2.5 mg/kg/injection, schedule: Q04DX003 (ip), vehicle: other 105 % of control and 113 % of control | dose: 5.0 mg/kg/injection, schedule: Q04DX003 (ip), vehicle: other 118 % of control
active: dose: 12.0 mg/kg/injection, schedule: Q01DX009 (ip), vehicle: saline with Tween-80 150 % of control

CCCOc1ccc(-c2nc(-c3ccc(N=Cc4ccc(N(CCOS(C)(=O)=O)CCOS(C)(=O)=O)cc4C)cc3)cs2)cc1
active: dose: 25.0 mg/kg/injection, schedule: Q04DX003 (ip), vehicle: saline with Tween-80 156 % of control | dose: 50.0 mg/kg/injection, schedule: Q04DX003 (ip), vehicle: saline with Tween-80 175 % of control | [1] 166 % of control

N#CSc1ncnc2nc[nH]c12
inactive: dose: 3.0 mg/kg/injection, schedule: Q01DX009 (ip), vehicle: alkali diluted with saline 110 % of control | dose: 3.0 mg/kg/injection, schedule: Q04DX003 (ip), vehicle: alkali diluted with saline 100 % of control | dose: 4.0 mg/kg/injection, schedule: Q01DX009 (ip), vehicle: alkali diluted with saline 95 % of control | dose: 6.0 mg/kg/injection, schedule: Q01DX009 (ip), vehicle: alkali diluted with saline 116 % of control | dose: 6.0 mg/kg/injection, schedule: Q04DX003 (ip), vehicle: alkali diluted with saline 95 % of control | dose: 9.0 mg/kg/injection, schedule: Q01DX009 (ip), vehicle: alkali diluted with saline 95 % of control | dose: 12.0 mg/kg/injection, schedule: Q01DX009 (ip), vehicle: alkali diluted with saline 120 % of control | dose: 12.0 mg/kg/injection, schedule: Q04DX003 (ip), vehicle: alkali diluted with saline 100 % of control and 113 % of control

CC(=O)OC1CCC(C)(C2CCC3(C)C(C(C)CCCC(C)C)CCC3C2CC(=O)O)C(=O)C1 (configuration not stated)
inactive: dose: 100.0 mg/kg/injection, schedule: Q01DX009 (ip), vehicle: Klucel (hydroxypropylcellulose) (HPC) 90 % of control | dose: 200.0 mg/kg/injection, schedule: Q01DX009 (ip), vehicle: Klucel (hydroxypropylcellulose) (HPC) 90 % of control | dose: 400.0 mg/kg/injection, schedule: Q01DX009 (ip), vehicle: Klucel (hydroxypropylcellulose) (HPC) 95 % of control

O=C(N=C1C=CC(=NC(=O)OCc2ccccc2)C=C1)OCc1ccccc1
inactive: dose: 100.0 mg/kg/injection, schedule: Q04DX003 (ip), vehicle: Klucel (hydroxypropylcellulose) (HPC) 95 % of control | dose: 200.0 mg/kg/injection, schedule: Q04DX003 (ip), vehicle: Klucel (hydroxypropylcellulose) (HPC) 100 % of control | dose: 400.0 mg/kg/injection, schedule: Q04DX003 (ip), vehicle: Klucel (hydroxypropylcellulose) (HPC) 100 % of control

CN(C)CNc1ncnc2onc(-c3ccccc3)c12
inactive: dose: 50.0 mg/kg/injection, schedule: Q01DX009 (ip), vehicle: other 100 % of control | dose: 100.0 mg/kg/injection, schedule: Q01DX009 (ip), vehicle: other 102 % of control

O=c1ccc2cc(Cl)ccc2[nH]1
inactive: dose: 50.0 mg/kg/injection, schedule: Q01DX001 (ip), vehicle: saline with Tween-80 105 % of control | [2] 103 % of control

O=C(Cl)c1cc2ccccc2o1
inactive: [2] 91 % of control | dose: 200.0 mg/kg/injection, schedule: Q01DX001 (ip), vehicle: saline with Tween-80 108 % of control | dose: 400.0 mg/kg/injection, schedule: Q01DX001 (ip), vehicle: saline with Tween-80 91 % of control

CN1CCCc2cccc(NC(=O)C3CCCNC3=O)c21 (configuration not stated)
inactive: [1] 101 % of control | [3] 100 % of control | [4] 116 % of control

c1ccc2cc(Nc3ccc(Nc4ccc5ccccc5c4)cc3)ccc2c1
inactive: [5] 100 % of control | [6] 91 % of control | dose: 400.0 mg/kg/injection, schedule: Q01DX001 (ip), vehicle: Klucel (hydroxypropylcellulose) (HPC) 95 % of control

CCCCCCCCCC(=O)NC(COC1OC(CO)C(O)C(O)C1O)C(O)c1ccccc1 (configuration not stated)
inactive: dose: 25.0 mg/kg/injection, schedule: Q01DX009 (ip), vehicle: suspension in saline 98 % of control | dose: 50.0 mg/kg/injection, schedule: Q01DX009 (ip), vehicle: suspension in saline 108 % of control | dose: 100.0 mg/kg/injection, schedule: Q01DX009 (ip), vehicle: suspension in saline 102 % of control

C=C(C(=O)OC1CC2CCC(C1)N2C)c1ccccc1 (configuration not stated)
inactive: dose: 1.25 mg/kg/injection, schedule: Q01DX009 (ip), vehicle: saline 100 % of control | dose: 2.5 mg/kg/injection, schedule: Q01DX009 (ip), vehicle: saline 100 % of control | dose: 5.0 mg/kg/injection, schedule: Q01DX009 (ip), vehicle: saline 100 % of control | dose: 10.0 mg/kg/injection, schedule: Q01DX009 (ip), vehicle: saline 90 % of control

CC1=C2CC(C)(C)/C=C\C(=O)/C(C)=C\C3=CC(C)(O)CC3(O2)C1=O (configuration not stated)
active: dose: 10.0 mg/kg/injection, schedule: Q01DX009 (ip), vehicle: saline + alcohol 154 % of control
inactive: dose: 0.16 mg/kg/injection, schedule: Q01DX009 (ip), vehicle: saline + alcohol 93 % of control | dose: 0.31 mg/kg/injection, schedule: Q01DX009 (ip), vehicle: saline + alcohol 118 % of control | dose: 0.62 mg/kg/injection, schedule: Q01DX009 (ip), vehicle: saline + alcohol 120 % of control | dose: 1.25 mg/kg/injection, schedule: Q01DX009 (ip), vehicle: saline + alcohol 118 % of control

O=C(CN1C(=O)c2ccccc2C1=O)c1ccc(C(F)(F)F)cc1
inactive: dose: 50.0 mg/kg/injection, schedule: Q01DX001 (ip), vehicle: Klucel (hydroxypropylcellulose) (HPC) 96 % of control | [5] 105 % of control | [6] 88 % of control

O=[N+]([O-])c1cccc(CS(=O)(=O)c2ccccc2)c1-c1c(CS(=O)(=O)c2ccccc2)cccc1[N+](=O)[O-]
inactive: dose: 100.0 mg/kg/injection, schedule: Q04DX003 (ip), vehicle: saline sonified 95 % of control | dose: 200.0 mg/kg/injection, schedule: Q04DX003 (ip), vehicle: saline sonified 100 % of control | dose: 400.0 mg/kg/injection, schedule: Q04DX003 (ip), vehicle: saline sonified 86 % of control

CC(=O)N1C(=O)NC(=O)C1(C)c1ccco1 (configuration not stated)
inactive: dose: 25.0 mg/kg/injection, schedule: Q01DX009 (ip), vehicle: saline with Tween-80 122 % of control | dose: 50.0 mg/kg/injection, schedule: Q01DX009 (ip), vehicle: saline with Tween-80 112 % of control | dose: 100.0 mg/kg/injection, schedule: Q01DX009 (ip), vehicle: saline with Tween-80 103 % of control and 122 % of control | [1] 109 % of control and 113 % of control | dose: 200.0 mg/kg/injection, schedule: Q01DX009 (ip), vehicle: saline with Tween-80 92 % of control and 115 % of control | [3] 104 % of control and 122 % of control | dose: 400.0 mg/kg/injection, schedule: Q01DX009 (ip), vehicle: saline with Tween-80 87 % of control | [4] 90 % of control

Cc1ccc(NC(=O)OCCOc2ccc(-c3ccccc3)cc2)c([N+](=O)[O-])c1
inactive: dose: 12.5 mg/kg/injection, schedule: Q01DX009 (ip), vehicle: DMSO 100 % of control | dose: 25.0 mg/kg/injection, schedule: Q01DX009 (ip), vehicle: DMSO 119 % of control | dose: 50.0 mg/kg/injection, schedule: Q01DX009 (ip), vehicle: DMSO 102 % of control

Cn1ccc(=O)c2cc([N+](=O)[O-])ccc21
inactive: dose: 12.5 mg/kg/injection, schedule: Q01DX009 (ip), vehicle: water 94 % of control | dose: 25.0 mg/kg/injection, schedule: Q01DX009 (ip), vehicle: water 111 % of control | dose: 25.0 mg/kg/injection, schedule: Q04DX003 (ip), vehicle: water 102 % of control | dose: 50.0 mg/kg/injection, schedule: Q01DX009 (ip), vehicle: water 93 % of control | dose: 50.0 mg/kg/injection, schedule: Q04DX003 (ip), vehicle: water 100 % of control | dose: 100.0 mg/kg/injection, schedule: Q01DX009 (ip), vehicle: water 94 % of control | dose: 100.0 mg/kg/injection, schedule: Q04DX003 (ip), vehicle: water 109 % of control | dose: 200.0 mg/kg/injection, schedule: Q01DX009 (ip), vehicle: water 93 % of control | dose: 200.0 mg/kg/injection, schedule: Q04DX003 (ip), vehicle: water 92 % of control | dose: 300.0 mg/kg/injection, schedule: Q01DX009 (ip), vehicle: water 113 % of control
